Assay results from paper PMC10313808, “Lipoxygenase inhibitory synthetic derivatives of methyl gallate regulate gene expressions of COX-2 and cytokines to reduce animal model arthritis” (Scientific Reports, 2023).
Marks after values point to notes of the source that are not given here.

Assays:
Type in all cases: in vivo, Sprague–Dawley (SD) rats
[1] = test system: FCA-induced arthritis; test: FCA-induced arthritis: hind paw volume; conditions: for Percentage of inhibition (paw oedema) / Paw volume (mL) (mean ± SEM) 9th day / Paw volume (mL) (mean ± SEM) 18th day / Paw volume (mL) (mean ± SEM) 28th day / Paw volume (mL) (mean ± SEM) Initial day: FCA rats; for amount required relative to diclofenac for the same level of effect: in vivo FCA arthritis studies
Experimental: (§1) Chronic inflammation induced by Freund's Complete Adjuvant contains a suspension of heat-killed Mycobacterium tuberculosis in the vehicle (Chondrex, Labex Corporation). 100 μL of FCA (10 mg/mL) was injected intradermally to the left-hand paw of SD rats[42]. […] Induction of inflammation became chronic by 9–12 days and then rats were divided into 7 groups having 6 rats in each group. Everything possible was done to minimize the suffering of experimental animals. Minimum number of rats only were drafted to generate reliable data. 42 rats were randomly allocated into seven groups (6 × 7).
(§2) Group I (n = 6) served as normal rats that received an equal volume of vehicle control. Group II (n = 6) was arthritic model control treated with vehicle only. Group III (n = 6) was arthritic control which received the diclofenac (10 mg.kg^–1). Groups IV (n = 6), V (n = 6), VI (n = 6) and VII (n = 6) were treated with a low and high dose of methyl gallate (20 mg.kg^–1, 40 mg.kg^–1) and MGSD 1 (1 mg.kg^–1, 10 mg.kg^–1). The drugs were orally administered through oral gavage daily in PBS vehicle for 28 days.
By a plethysmometer the rat hind paw volume was measured from the initial day to final day (28th day) with successive intervals of 9 days, before and after FCA injection. The inhibition was calculated by the formula given below. Percentageinhibition=1-Meanchangesinpawvolumeoftreatedrat/Meanchangesinpawvolumeofuntreatedrat×100.

[2] = test system: COX-2; test: RT-PCR gene expression in hind paw tissue, COX-2; conditions: normalized to GAPDH, vs arthritic control
Experimental: This study aimed to gain insight into the mechanism by which methyl gallate and its derivative influence the chronic inflammatory condition in the rat model. In the present study, the inflammatory pathway genes were identified, and their relative expression was quantified (COX-2 and TNF α). RNA was isolated from the hind paw tissue of rats and its concentration was analyzed through Qubit fluorometer. RNA was isolated by Trizol method and agarose gel electrophoresis performed. After the isolation protocol, complementary DNA was synthesized and followed the quantitative PCR with standard conditions. Primers of the targets were designed in Primer3Plus and primer validation was carried out. PCR annealing temperatures were standardized to amplify the specific genes. All the primer pairs were highly specific and resolved into single bands corresponding to amplification products of expected size on 2% agarose gel electrophoresis. Primer specificity was further confirmed by a single distinct peak on the melt curve. The specificity of primer pairs ensures the sequence quality of respective gene templates.
The relative expression of inflammatory genes was identified through quantitative RT-PCR. […] The concentration of RNA isolated was measured in the Qubit fluorometer with the RNA HS assay kit. cDNA was synthesized by reverse transcription using total RNA (2 μg) as a template. […]

[3] = FCA-induced arthritis: body weight measurement; conditions: FCA rats
Experimental: as §1, §2
The bodyweight of the animals was measured every day after the commencement of the experiment till the end (28th day). The weight change was calculated using the formula: Weightchange%=Wt-Wo/[…], where Wt is the weight of the animal at time t
Wo is the weight of the animal on the initial day.

[4] = test system: ankle joints, liver, spleen, and thymus; test: FCA-induced arthritis: histological analysis; conditions: FCA rats; for Histology of liver / Histology of spleen: dose not stated; for Histology of thymus: methyl gallate high dose
Experimental: The animals used for the FCA induced arthritis were euthanized at the end of the experiment and the ankle joints were separated from the hind paw and fixed in 10% buffered formalin. Similarly, liver, spleen, and thymus were also dissected carefully and immersed in fixative, and after 24 h each specimen were decalcified in 5% nitric acid, followed by embedding in paraffin wax and 4 µm thickness sections were prepared. These prepared sections were then mounted and stained with hematoxylin and[…] under brightfield compound binocular research microscope at 100X and 400X magnification and inflammation was graded.

[5] = test system: FCA-induced arthritis; test: FCA-induced arthritis: haematological parameters; conditions: FCA rats
Experimental: as §1, §2
Blood was drawn from jugular vein[43] and collected in heparinized tubes and used for further analysis. By using Horiba 5-part hematology analyzer the blood parameters like RBC, WBC, neutrophil and hemoglobin were analyzed. Serum parameters were analyzed using Stat Fax autoanalyzer. Serum glutamic pyruvic transaminase (SGPT), serum glutamic oxaloacetic transaminase (SGOT) and alkaline phosphatase (ALP) were determined using standard diagnostic kits (Proton, Accurex).

[6] = test system: FCA-induced arthritis; test: FCA-induced arthritis: organ index (liver, spleen); conditions: FCA rats, end of experiment
Experimental: as §1, §2
At the end of the experiments, animals were euthanized using ketamine injection. The liver and spleen were removed at the end of the experiment and weighed. The index of the organs was expressed as the percentage (%) wet weight of organ versus body weight. The organ indexes were calculated by using the following formula Organindex=Weightoforgang/Bodyweightg×100.

O=C(O)COc1cc(C(=O)O)cc(OCC(=O)O)c1OCC(=O)O [MGSD 1, 2,2′,2″-((5-carboxybenzene-1,2,3-triyl)tris(oxy)) tri acetic acid]
Percentage of inhibition (paw oedema) ([1]; 1 mg.kg^−1 oral): 68%
Paw volume (mL) (mean ± SEM) 9th day ([1]; 1 mg.kg^−1 oral): 0.97 ± 0.16 mL
Paw volume (mL) (mean ± SEM) 18th day ([1]; 1 mg.kg^−1 oral): 0.68 ± 0.22 mL
Paw volume (mL) (mean ± SEM) 28th day ([1]; 1 mg.kg^−1 oral): 0.59 ± 0.08 mL
Paw volume (mL) (mean ± SEM) Initial day ([1]; 1 mg.kg^−1 oral): 0.50 ± 05 mL
Percentage of inhibition (paw oedema) ([1]; 10 mg.kg^−1 oral): 70%
Paw volume (mL) (mean ± SEM) 9th day ([1]; 10 mg.kg^−1 oral): 1.05 ± 0.16 mL
Paw volume (mL) (mean ± SEM) 18th day ([1]; 10 mg.kg^−1 oral): 0.69 ± 0.22 mL
Paw volume (mL) (mean ± SEM) 28th day ([1]; 10 mg.kg^−1 oral): 0.56 ± 0.08 mL
Paw volume (mL) (mean ± SEM) Initial day ([1]; 10 mg.kg^−1 oral): 0.50 ± 0.05 mL
amount required relative to diclofenac for the same level of effect [1]: approximately 1/12
COX-2 gene expression [2]: significant down regulation of COX-2
Percentage of body weight (Mean ± SEM) 9th day ([3]; 1 mg.kg^−1 oral): 13.40 ± 0.26 %
Percentage of body weight (Mean ± SEM) 18th day ([3]; 1 mg.kg^−1 oral): 25.99 ± 51 %
Percentage of body weight (Mean ± SEM) 28th day ([3]; 1 mg.kg^−1 oral): 40.15 ± 0.00 %
Percentage of body weight (Mean ± SEM) 9th day ([3]; 10 mg.kg^−1 oral): 14.47 ± 1.13 %
Percentage of body weight (Mean ± SEM) 18th day ([3]; 10 mg.kg^−1 oral): 30.20 ± 1.57 %
Percentage of body weight (Mean ± SEM) 28th day ([3]; 10 mg.kg^−1 oral): 38.44 ± 1.81 %
Histology of ankle joints ([4]; 10 mg.kg^-1): reduced oedema formation and neutrophil infiltration was found very low
Histology of liver [4]: central sinusoid visible and hepatic array of cells normal
Histology of spleen [4]: more efficient in controlling the inflammatory response than methyl gallate and diclofenac
Histology of thymus [4]: more effective than the parent compound in reverting inflammation-based T-Cell proliferation
Hb ([5]; 1 mg.kg^−1 oral): 14.8 ± 0.42 g/dL
Lymphocyte ([5]; 1 mg.kg^−1 oral): 75.8 ± 0.21%
Neutro phil ([5]; 1 mg.kg^−1 oral): 11.6 ± 0.76%
RBC ([5]; 1 mg.kg^−1 oral): 6.93 ± 0.18^# 10^6/mm^3
WBC ([5]; 1 mg.kg^−1 oral): 9.3 ± 0.48^# 10^3/mm^3
Hb ([5]; 10 mg.kg^−1 oral): 14.2 ± 0.26 g/dL
Lymphocyte ([5]; 10 mg.kg^−1 oral): 75.9 ± 3.44%
Neutro phil ([5]; 10 mg.kg^−1 oral): 13.4 ± 0.23%
RBC ([5]; 10 mg.kg^−1 oral): 7.075 ± 0.37^# 10^6/mm^3
WBC ([5]; 10 mg.kg^−1 oral): 8.45 ± 0.98* 10^3/mm^3
Organ index (%) Liver ([6]; 1 mg.kg^−1 oral): 3.21 ± 0.12%
Organ index (%) Spleen ([6]; 1 mg.kg^−1 oral): 0.24 ± 0.00%
Organ index (%) Liver ([6]; 10 mg.kg^−1 oral): 3.18 ± 0.48%
Organ index (%) Spleen ([6]; 10 mg.kg^−1 oral): 0.22 ± 0.00%

COC(=O)c1cc(O)c(O)c(O)c1 [Methyl gallate]
Percentage of inhibition (paw oedema) ([1]; 20 mg.kg^−1 oral): 45%
Paw volume (mL) (mean ± SEM) 9th day ([1]; 20 mg.kg^−1 oral): 1.32 ± 0.16 mL
Paw volume (mL) (mean ± SEM) 18th day ([1]; 20 mg.kg^−1 oral): 1.24 ± 0.22 mL
Paw volume (mL) (mean ± SEM) 28th day ([1]; 20 mg.kg^−1 oral): 1.18 ± 0.08 mL
Paw volume (mL) (mean ± SEM) Initial day ([1]; 20 mg.kg^−1 oral): 0.56 ± 0.05 mL
Percentage of inhibition (paw oedema) ([1]; 40 mg.kg^−1 oral): 37%
Paw volume (mL) (mean ± SEM) 9th day ([1]; 40 mg.kg^−1 oral): 1.66 ± 0.18 mL
Paw volume (mL) (mean ± SEM) 18th day ([1]; 40 mg.kg^−1 oral): 1.56 ± 0.24 mL
Paw volume (mL) (mean ± SEM) 28th day ([1]; 40 mg.kg^−1 oral): 1.4 ± 0.09 mL
Paw volume (mL) (mean ± SEM) Initial day ([1]; 40 mg.kg^−1 oral): 0.50 ± 0.05 mL
Percentage of inhibition (paw oedema) ([1]; 40 mg.kg^−1 oral, listed as methyl gallate): 35–45%
amount required relative to diclofenac for the same level of effect [1]: approximately five times of diclofenac
COX-2 gene expression [2]: significant down regulation of COX-2
Percentage of body weight (Mean ± SEM) 9th day ([3]; 20 mg.kg^−1 oral): 9.43 ± 0.84%
Percentage of body weight (Mean ± SEM) 18th day ([3]; 20 mg.kg^−1 oral): 23.61 ± 0.65%
Percentage of body weight (Mean ± SEM) 28th day ([3]; 20 mg.kg^−1 oral): 34.17 ± 0.23 %
Percentage of body weight (Mean ± SEM) 9th day ([3]; 40 mg.kg^−1 oral): 10.34 ± 0.52%
Percentage of body weight (Mean ± SEM) 18th day ([3]; 40 mg.kg^−1 oral): 22.42 ± 0.28%
Percentage of body weight (Mean ± SEM) 28th day ([3]; 40 mg.kg^−1 oral): 30.99 ± 0.23 %
Histology of ankle joints ([4]; 40 mg.kg^-1): synovial space with neutrophil infiltration, although much less than that of arthritic control
Histology of liver [4]: hepatocyte arrays and central sinusoid area were seen to regain normalcy and a few necrotic cells were still visible
Histology of spleen [4]: lesser degree of spleen reversion
Histology of thymus [4]: effective in controlling inflammation-based T-Cell proliferation
Hb ([5]; 20 mg.kg^−1 oral): 14.2 ± 0.65 g/dL
Lymphocyte ([5]; 20 mg.kg^−1 oral): 79 ± 0.79%
Neutro phil ([5]; 20 mg.kg^−1 oral): 11.7 ± 0.25%
RBC ([5]; 20 mg.kg^−1 oral): 7.47 ± 0.32^# 10^6/mm^3
WBC ([5]; 20 mg.kg^−1 oral): 8.3 ± 0.6 10^3/mm^3
Hb ([5]; 40 mg.kg^−1 oral): 14.4 ± 0.74 g/dL
Lymphocyte ([5]; 40 mg.kg^−1 oral): 78.6 ± 1.85%
Neutro phil ([5]; 40 mg.kg^−1 oral): 12.8 ± 0.4%
RBC ([5]; 40 mg.kg^−1 oral): 7.87 ± 0.34^# 10^6/mm^3
WBC ([5]; 40 mg.kg^−1 oral): 11.25 ± 0.62^# 10^3/mm^3
Organ index (%) Liver ([6]; 20 mg.kg^−1 oral): 3.59 ± 0.03 %
Organ index (%) Spleen ([6]; 20 mg.kg^−1 oral): 0.27 ± 0.01%
Organ index (%) Liver ([6]; 40 mg.kg^−1 oral): 3.63 ± 0.11 %
Organ index (%) Spleen ([6]; 40 mg.kg^−1 oral): 0.28 ± 0.02%
